Measurements reported in patent US8865894B2, “Oxazolidin-2-one compounds and uses thereof” (Novartis AG, priority 2012, dated 2014).
Like-named read-outs stand apart in the source and are kept apart here.

Legend:
[1] = biological target: T1, human PI3Kβ (Homo sapiens, UniProt P42338); experiment: Biochemical PI3Kbeta (KinaseGlo luminescent kinase assay); settings: 1 μM ATP, mean of n measurements, read-out: PI3Kb/ IC50
T1 construct: made in house
Procedure: Test compounds were dissolved in DMSO (10 mM) and transferred into 1.4 mL flat bottom or V-shaped Matrix tubes carrying a unique 2D matrix chip by individual Novartis compound hubs. The numbers of these chips were distinctively linked to Novartis Pharma Numbers. The stock solutions were stored at −20° C. if not used immediately. For the test procedure the vials were defrosted and identified by a scanner whereby a working sheet was generated that guided the subsequent working steps.
Compounds were either manually diluted in DMSO for individual experiments (96 wells enabling 10 cpds at 8 (single points) concentrations) as described in or prepared as described below if tested for profiling in 384-wells. This format enabled the assay of maximally 40 individual test compounds at 8 concentrations (single points) including 4 reference compounds. The dilution protocol included the production of “pre-dilution plates”, “master plates” and “assay plates”.
96 polypropylene well plates were used as pre-dilution plates. A total of 4 pre-dilution plates were prepared including 10 test compounds each on the plate positions A1-A10, one standard compound at A11 and one DMSO control at A12. Programs have been written to run these pipetting steps on the HamiltonSTAR robots.
Identical “assay plates” were then prepared by pipetting 50 nL each of compound dilutions of the “master plates” into 384-well “assay plates”. The compounds were mixed with 4.5 μL of assays components plus 4.5 μL enzyme corresponding to a 1:181 dilution enabling the final concentration of 10, 3.0, 1.0, 0.3, 0.1, 0.03, 0.01 and 0.003 μM, respectively. The preparation of the “master plates” was handled by the Matrix PlateMate Plus robot and replication of “assay plates” by the HummingBird robot.
Catalytically active human PI3Kα, PI3Kβ, PI3Kδ, and mTOR were cloned, expressed and purified as described (Maira S M, Stauffer F, Brueggen J, Furet P, Schnell C, Fritsch C, Brachmann S, Chène P, de Pover A, Schoemaker K, Fabbro D, Gabriel D, Simonen M, Murphy L, Finan P, Sellers W, García-Echeverría C (2008), Mol Cancer Ther. 7:1851-63 and Maira S M, Pecchi S, Brueggen J, Huh K, Schnell C, Fritsch C, Nagel T, Wiesmann M, Brachmann S, Dorsch M, Chène P, Schoemaker K, De Pover A, Menezes D, Fabbro D, Sellers W, García-Echeverría C, Voliva C F (2011), Mol. Cancer Ther. accepted).
The luminescence-based ATP detection reagent KinaseGlo was obtained from Promega, (Cat. No. V6714, Lot No. 236161) through Catalys, Wallisellen, Switzerland. (L-alpha-phosphatidylinositol (PI), Liver, Bovine) were obtained from Avanti Polar Lipid (Cat. No. 840042C, Lot#LPI-274), Phosphatidylinositol-4,5-bisphosphate (PIP(4,5)2 (Avanti, Cat. No. 840046×) or L-α-phosphatidylinositol (PI) was obtained from Avanti Polar Lipid (Cat. No. 840042C, Lot#LPI-274). L-α-Phosphatidylserine (PS) was from Avanti Polar Lipid (Cat. No. 840032C), n-OctylGlucoside Avanti Polar Lipid (Cat. No. 10634425001). Luminescence is a well established readout to determine ATP concentrations and can thus be used to follow the activity of many kinases regardless of their substrate. The Kinase Glo Luminescent Kinase Assay (Promega, Madison/Wis., USA) is a homogeneous HTS method of measuring kinase activity by quantifying the amount of ATP remaining in solution following a kinase reaction.
50 nL of compound dilutions were dispensed onto black 384-well low volume Non Binding Styrene (NBS) plates (Costar Cat. No. NBS#3676) as described in section 8.2. L-α-phosphatidylinositol (PI), provided as 10 mg/ml solution in methanol, was transferred into a glass tube and dried under nitrogen beam. It was then resuspended in 3% OctylGlucoside by vortexing and stored at 4° C. 5 μL of a mix of PI/OG with the PI3Ka and Pi3Kb subtypes were added. Kinase reactions were started by addition of 5 μl of ATP-mix containing in a final volume 10 μL 10 mM TRIS-HCl pH 7.5, 3 mM MgCl2, 50 mM NaCl, 0.05% CHAPS, 1 mM DTT and 1 μM ATP, and occurred at room temperature.

[2] = biological target: T2, mTOR (Mus musculus, UniProt Q9JLN9); experiment: Cellular assay mTOR (phospho-T389 S6K1 SureFire in TSC1-/- MEF cells); assay type: cell-based
T2 construct: endogenous in cells; host or cells: TSC1-/- MEF (mouse embryo fibroblasts)
Excerpt: A cell based assay (384-well format) was developed for determination of compound effects on cellular mTOR kinase activity in MEF (mouse embryo fibroblasts) cells derived from mice lacking TSC1 (Tuberosclerosis Complex1) a potent suppressor of mTOR kinase activity. Due to lack of TSC1 the mTOR kinase is constitutively activated resulting in permanent phosphorylation of Thr 389 of S6 kinase 1 (S6K1) which is one of the downstream targets of mTOR.
Using a SureFire Kit that enables to determine the phosphorylation of Thr389 on the S6K1 an assay was developed, validated and implemented in the Alpha-Screen format that allows the quantitative determination of phospho-T389 of S6K1 in cell lysates. […] These were in agreement with those values obtained with the biochemical mTOR ATP-binding assay enabling a quantitative comparison of potency of mTOR inhibitors.
TSC1−/− MEFs cells (Kwiatkowski, D. J., Zhang, H., Bandura, J. L., Heiberger, K. M., Glogauer, M., el-Hashemite, N., and Onda, H. (2002) Hum. Mol. Genet. 11, 525-534) were cultured in DMEM high glucose medium supplemented with 10% FBS (Invitrogen), 2 mM Glutamine and 1% (w/v) Penicillin/Streptomycin at 37° C., 5% CO2.
The SureFire kit for determination of P70S6kinase phosphorylation was purchased from Perkin Elmer (p70S6K p-T389, #TGR70S50K) and the assay was performed according to the instructions of the supplier and according to the generic method for SureFire assays. Shortly, 5 μL cell lysate per well were transferred to 384-well white proxy-plates (for luminescent readout) and mixed with […] and […] (final volume: 12 μL). After 3 h incubation in the dark at RT luminescence was read with the Envision Reader (Perkin Elmer). Untreated cells were used as control (high control) and cells treated with 3 μM BEZ235 were used as low control. The assay window between the signals obtained for the high and the low controls were defined as 100% and compound effects were expressed as percent inhibition. IC50 values were calculated from the dose response curves by graphical extrapolation.

[3] = TSC1-/- MEF cells, read-out: mTOR S6K(T389)_TSC1ko/ IC50
[4] = second value / 3 of the 4 values / 3 of the 5 values as per footnote, read-out: mTOR S6K(T389)_TSC1ko IC50, further individual values (footnotes)

T1 sequence (P42338 2-1070 limits assumed): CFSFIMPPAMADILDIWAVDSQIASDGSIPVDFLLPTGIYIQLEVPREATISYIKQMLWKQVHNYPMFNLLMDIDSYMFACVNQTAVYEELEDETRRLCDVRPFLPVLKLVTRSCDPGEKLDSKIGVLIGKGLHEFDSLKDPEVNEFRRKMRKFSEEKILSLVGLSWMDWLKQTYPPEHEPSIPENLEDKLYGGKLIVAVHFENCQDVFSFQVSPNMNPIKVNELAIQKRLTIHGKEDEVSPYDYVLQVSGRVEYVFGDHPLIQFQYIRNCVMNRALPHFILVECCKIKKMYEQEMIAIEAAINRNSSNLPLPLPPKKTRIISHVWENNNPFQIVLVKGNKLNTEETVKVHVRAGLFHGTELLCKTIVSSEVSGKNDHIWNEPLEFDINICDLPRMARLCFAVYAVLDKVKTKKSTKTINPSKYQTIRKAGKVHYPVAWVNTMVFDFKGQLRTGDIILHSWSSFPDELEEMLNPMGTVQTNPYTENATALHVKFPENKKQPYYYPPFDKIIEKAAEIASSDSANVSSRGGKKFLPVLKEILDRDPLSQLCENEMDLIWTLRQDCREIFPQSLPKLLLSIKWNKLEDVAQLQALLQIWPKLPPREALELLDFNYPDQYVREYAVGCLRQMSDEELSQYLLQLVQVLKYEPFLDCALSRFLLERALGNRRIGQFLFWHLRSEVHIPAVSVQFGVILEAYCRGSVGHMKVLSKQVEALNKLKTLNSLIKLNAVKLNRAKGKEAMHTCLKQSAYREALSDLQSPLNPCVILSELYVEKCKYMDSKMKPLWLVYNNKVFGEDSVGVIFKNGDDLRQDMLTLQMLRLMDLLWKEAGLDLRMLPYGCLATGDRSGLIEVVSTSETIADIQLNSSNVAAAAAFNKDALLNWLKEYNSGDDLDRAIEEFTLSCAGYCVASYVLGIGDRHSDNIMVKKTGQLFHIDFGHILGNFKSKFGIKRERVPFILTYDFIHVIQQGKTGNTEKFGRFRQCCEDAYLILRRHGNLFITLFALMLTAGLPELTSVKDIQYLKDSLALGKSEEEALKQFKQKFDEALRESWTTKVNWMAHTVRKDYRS

Row | Compound | IC50 [1] | IC50 [2, 3] | IC50 [2, 4]
1 | Nc1ncc(-c2cc(N3C(=O)OC[C@@H]3CCO)nc(N3CCOCC3)n2)c(C(F)(F)F)n1 [Example 9, (S)-3-(2′-Amino-2-morpholin-4-yl-4′-trifluoromethyl-[4,5′]bipyrimidinyl-6-yl)-4-(2-hydroxy-ethyl)-oxazolidin-2-one] | 41 nM | 1260 nM | > 2270 nM
2 | COC[C@H]1COC(=O)N1c1cc(-c2cnc(N)nc2C(F)(F)F)nc(N2CCOCC2)n1 [Example 5, (S)-3-(2′-Amino-2-morpholin-4-yl-4′-trifluoromethyl-[4,5′]bipyrimidinyl-6-yl)-4-methoxymethyl-oxazolidin-2-one] | 11 nM | 1410 nM | 
3 | C[C@H]1COCCN1c1nc(-c2cnc(N)nc2C(F)(F)F)cc(N2C(=O)OC[C@@H]2C)n1 [Example 13, (S)-3-[2′-Amino-2-((S)-3-methyl-morpholin-4-yl)-4′-trifluoromethyl-[4,5′]bipyrimidinyl-6-yl]-4-methyl-oxazolidin-2-one] | 146 nM | 1950 nM | 
4 | C[C@H]1OC(=O)N(c2cc(-c3cnc(N)nc3C(F)(F)F)nc(N3CCOC[C@@H]3C)n2)[C@H]1CO [Example 10, (4S,5R)-3-[2′-Amino-2-((S)-3-methyl-morpholin-4-yl)-4′-trifluoromethyl-[4,5′]bipyrimidinyl-6-yl]-4-hydroxymethyl-5-methyl-oxazolidin-2-one] | 38 nM | 2020 nM | > 2270 nM

Results, then the compound that gave them:

Row | IC50 [1] | IC50 [2, 3] | IC50 [2, 4] | Compound
5 | 16 nM | 1830 nM |  | C[C@@H](O)C[C@H]1OC(=O)N(c2cc(-c3cnc(N)nc3C(F)(F)F)nc(N3CCOCC3)n2)[C@H]1C (single isomer, unassigned) [Example 24]
6 | 11 nM | 1830 nM |  | C[C@H](O)CC1OC(=O)N(c2cc(-c3cnc(N)nc3C(F)(F)F)nc(N3CCOCC3)n2)[C@H]1C (single isomer, unassigned) [Example 25]
7 | 21 nM | 727 nM | > 2270 nM | C[C@H]1[C@H](CO)OC(=O)N1c1cc(-c2cnc(N)nc2C(F)(F)F)nc(N2CCOCC2)n1 [Example 15, (4S,5R)-3-(2′-Amino-2-morpholin-4-yl-4′-trifluoromethyl-[4,5′]bipyrimidinyl-6-yl)-5-hydroxymethyl-4-methyl-oxazolidin-2-one]
8 | 48 nM | 1390 nM |  | Nc1ncc(-c2cc(N3C(=O)O[C@@H]4[C@@H](O)CC[C@@H]43)nc(N3CCOCC3)n2)c(C(F)(F)F)n1 (racemic) [Example 22, (3aR*,6R*,6aR*)-3-(2′-Amino-2-morpholino-4′-(trifluoromethyl)-[4,5′-bipyrimidin]-6-yl)-6-hydroxyhexahydro-2H-cyclopenta[d]oxazol-2-one]
9 | 11 nM | > 2270 nM |  | Nc1ncc(-c2cc(N3C[C@H](CO)OC3=O)nc(N3CCOCC3)n2)c(C(F)(F)F)n1 [Example 20, (R)-3-(2′-Amino-2-morpholin-4-yl-4′-trifluoromethyl-[4,5′]bipyrimidinyl-6-yl)-5-hydroxymethyl-oxazolidin-2-one]
